Laboratory results reported in ChEMBL document CHEMBL1145457, “Structure-activity studies and analgesic efficacy of N-(3-pyridinyl)-bridged bicyclic diamines, exceptionally potent agonists at nicotinic acetylcholine receptors” (J Med Chem, 2007).
Activity calls are given as the source filed them. The calls are words filed in the database; no cut-off is given here.

Key:
[1] = target: Neuronal acetylcholine receptor; alpha4/beta2 (Homo sapiens, UniProt P17787+P43681); assay: Agonist activity at […] in IMR-32cells assessed as calcium influx by FLIPR assay; assay type: functional
Neuronal acetylcholine receptor; alpha4/beta2 (Homo sapiens, UniProt P17787+P43681), sequence (P17787 whole entry): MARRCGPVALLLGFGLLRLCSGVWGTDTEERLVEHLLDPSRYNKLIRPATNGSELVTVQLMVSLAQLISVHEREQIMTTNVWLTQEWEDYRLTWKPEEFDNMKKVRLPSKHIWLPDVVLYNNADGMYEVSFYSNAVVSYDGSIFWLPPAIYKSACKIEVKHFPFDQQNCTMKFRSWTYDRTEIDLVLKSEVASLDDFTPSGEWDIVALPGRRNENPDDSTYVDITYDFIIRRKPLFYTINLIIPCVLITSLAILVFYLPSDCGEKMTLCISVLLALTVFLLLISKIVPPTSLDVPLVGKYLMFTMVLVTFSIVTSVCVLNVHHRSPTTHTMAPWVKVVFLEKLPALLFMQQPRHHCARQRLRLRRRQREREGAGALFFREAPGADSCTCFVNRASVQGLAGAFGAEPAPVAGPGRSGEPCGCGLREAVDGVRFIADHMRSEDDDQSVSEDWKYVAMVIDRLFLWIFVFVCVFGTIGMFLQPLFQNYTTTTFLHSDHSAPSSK
Neuronal acetylcholine receptor; alpha4/beta2 (Homo sapiens, UniProt P17787+P43681), sequence (P43681 whole entry): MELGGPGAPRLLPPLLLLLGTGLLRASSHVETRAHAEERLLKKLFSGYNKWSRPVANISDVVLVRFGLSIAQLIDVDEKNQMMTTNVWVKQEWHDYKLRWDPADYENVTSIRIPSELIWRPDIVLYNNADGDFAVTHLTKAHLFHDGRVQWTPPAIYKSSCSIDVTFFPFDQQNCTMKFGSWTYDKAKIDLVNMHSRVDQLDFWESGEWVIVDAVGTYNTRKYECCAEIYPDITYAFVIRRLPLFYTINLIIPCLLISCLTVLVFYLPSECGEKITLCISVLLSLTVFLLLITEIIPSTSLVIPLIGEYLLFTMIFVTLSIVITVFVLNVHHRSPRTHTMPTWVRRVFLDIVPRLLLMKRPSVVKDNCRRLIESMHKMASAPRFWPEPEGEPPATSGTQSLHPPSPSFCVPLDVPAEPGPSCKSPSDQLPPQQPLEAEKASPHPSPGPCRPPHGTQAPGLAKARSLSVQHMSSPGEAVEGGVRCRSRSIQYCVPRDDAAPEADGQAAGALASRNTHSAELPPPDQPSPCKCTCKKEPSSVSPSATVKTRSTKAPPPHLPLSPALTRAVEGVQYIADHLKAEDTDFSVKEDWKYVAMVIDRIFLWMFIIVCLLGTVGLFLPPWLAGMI

[2] = target: Neuronal acetylcholine receptor; alpha4/beta2 (Rattus norvegicus, UniProt P09483+P12390); assay: Displacement of [3H]cytisine from alpha-4-beta-2 in rat cerebral cortical membrane; assay type: cell membranes
Neuronal acetylcholine receptor; alpha4/beta2 (Rattus norvegicus, UniProt P09483+P12390), sequence (P09483 whole entry): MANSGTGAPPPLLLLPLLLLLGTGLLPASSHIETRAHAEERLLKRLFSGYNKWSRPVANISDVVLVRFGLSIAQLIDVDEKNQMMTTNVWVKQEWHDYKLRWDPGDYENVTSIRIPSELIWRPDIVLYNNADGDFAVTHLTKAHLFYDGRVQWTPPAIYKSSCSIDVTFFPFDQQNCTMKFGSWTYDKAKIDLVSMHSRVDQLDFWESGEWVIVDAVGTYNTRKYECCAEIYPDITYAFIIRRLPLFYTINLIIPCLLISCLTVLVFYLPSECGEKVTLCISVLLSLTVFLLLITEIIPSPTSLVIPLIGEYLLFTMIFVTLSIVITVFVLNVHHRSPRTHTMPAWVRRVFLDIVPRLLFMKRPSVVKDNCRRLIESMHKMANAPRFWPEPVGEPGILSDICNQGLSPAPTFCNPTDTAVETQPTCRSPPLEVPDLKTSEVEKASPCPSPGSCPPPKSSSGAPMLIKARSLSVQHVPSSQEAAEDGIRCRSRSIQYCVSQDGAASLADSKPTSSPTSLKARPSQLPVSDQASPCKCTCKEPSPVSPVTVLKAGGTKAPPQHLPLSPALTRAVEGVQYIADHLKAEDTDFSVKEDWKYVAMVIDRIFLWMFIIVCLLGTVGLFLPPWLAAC
Neuronal acetylcholine receptor; alpha4/beta2 (Rattus norvegicus, UniProt P09483+P12390), sequence (P12390 whole entry): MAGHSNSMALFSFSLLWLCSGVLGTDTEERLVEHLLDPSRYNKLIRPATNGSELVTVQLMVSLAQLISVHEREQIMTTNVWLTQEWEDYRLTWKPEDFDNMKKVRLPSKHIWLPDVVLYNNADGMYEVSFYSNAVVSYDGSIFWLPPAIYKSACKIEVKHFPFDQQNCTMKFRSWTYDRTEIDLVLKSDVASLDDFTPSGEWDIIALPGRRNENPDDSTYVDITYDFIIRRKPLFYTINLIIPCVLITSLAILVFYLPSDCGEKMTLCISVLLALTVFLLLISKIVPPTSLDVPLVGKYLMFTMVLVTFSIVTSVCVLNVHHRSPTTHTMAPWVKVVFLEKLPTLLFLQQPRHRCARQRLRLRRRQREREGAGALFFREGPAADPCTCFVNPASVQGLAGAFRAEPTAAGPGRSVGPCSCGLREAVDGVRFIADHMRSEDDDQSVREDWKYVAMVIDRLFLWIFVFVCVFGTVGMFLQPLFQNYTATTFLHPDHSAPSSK

[3] = test system: Striatum; assay: Agonist activity at rat striatal tissue assessed as dopamine release; assay type: functional
[4] = test system: Mus musculus; assay: Effect on urination in mouse at 6.2 umol/kg, ip; assay type: functional, organism-based
[5] = test system: Rattus norvegicus; assay: Antinociceptive effect on rat assessed as increased latency to paw withdrawal in response to noxious thermal stimulus at 0.62 umol/kg, ip; assay type: functional, organism-based
[6] = species: Rattus norvegicus; assay: Reversal of mechanically-stimulated hyperalgesia in spinal nerve ligated rat chung model; assay type: functional, organism-based
[7] = test system: Mus musculus; assay: Effect on hypolocomotion in mouse at 6.2 umol/kg, ip; assay type: functional, organism-based
[8] = test system: Mus musculus; assay: Effect on head weaving in mouse at 6.2 umol/kg, ip; assay type: functional, organism-based
[9] = test system: Mus musculus; assay: Induction of seizure in mouse at 62 umol/kg, ip; assay type: functional, organism-based
[10] = test system: Rattus norvegicus; assay: Antinociceptive effect on rat assessed as reduction of flinches up to 1.9 umol/kg, ip; assay type: functional, organism-based
[11] = Drug level in Sprague-Dawley rat plasma at 6.2 umol/kg, ip after 60 mins; assay type: ADME, organism-based
[12] = test system: Rattus norvegicus; assay: Effect on reversal of allodynia in rat chug model at 19 umol/kg, ip; assay type: functional, organism-based
[13] = test system: Rattus norvegicus; assay: Antinociceptive effect in rat assessed as reduction of flinches up to 6.2 umol/kg, ip; assay type: functional, organism-based
[14] = Drug levels in Sprague-Dawley rat plasma at 6.2 umol/kg, ip after 15 mins; assay type: ADME, organism-based
[15] = Drug level in Sprague-Dawley rat plasma at 6.2 umol/kg, ip after 30 mins; assay type: ADME, organism-based
[16] = Drug level in Sprague-Dawley rat brain at 6.2 umol/kg, ip after 15 mins; assay type: ADME, organism-based; details: read-out: Drug uptake
[17] = Drug level in Sprague-Dawley rat at 6.2 umol/kg, ip after 60 mins; assay type: ADME, organism-based; details: brain, read-out: Drug uptake
[18] = Drug level in Sprague-Dawley rat brain at 6.2 umol/kg, ip after 30 mins; assay type: ADME, organism-based; details: read-out: Drug uptake
[19] = Rattus norvegicus, Striatum, read-out: EC50
[20] = Rattus norvegicus, Striatum, read-out: Log EC50 (converted)

Structure (SMILES)	EC50 ([1]; read-out: EC50)	Ki ([2]; read-out: Ki)	also measured
COc1cc(N2C[C@H]3C[C@@H]2CN3)cnc1Cl	4300 nM	0.1 nM	–
O=C(c1ccc(Cl)nc1)N1C[C@H]2C[C@@H]1CN2	–	590 nM	–
CN1C[C@@H]2C[C@H]1CN2c1ccc(Cl)nc1	–	1.3 nM	–
Clc1nnc(N2C[C@@H]3C[C@H]2CN3)c2ccccc12	–	1900 nM	–
O=[N+]([O-])c1ccc(N2C[C@@H]3C[C@H]2CN3)cc1	–	67 nM	–
COc1cncc(N2C[C@H]3C[C@@H]2CN3)c1	5700 nM	0.12 nM	Log EC50 [3]: -7.7; EC50 ([3]; read-out: EC50): 20 nM
c1csc(N2C[C@@H]3C[C@H]2CN3)n1	–	2300 nM	–
Fc1ccc(N2C[C@@H]3C[C@H]2CN3)cn1	3700 nM	0.17 nM	Log EC50 [3]: -7.72; EC50 ([3]; read-out: EC50): 19 nM; Ki ([2]; read-out: Log Ki (converted)): 0.141 nM
COc1cncc(N2C[C@@H]3C[C@H]2CN3)c1	30000 nM	0.53 nM	Log EC50 [3]: -7.09; EC50 ([3]; read-out: EC50): 81 nM
c1cncc(N2C[C@@H]3C[C@H]2CN3)c1	6400 nM	0.15 nM	EC50 [3, 19]: 138 nM; EC50 [3, 20]: 138 nM
Cc1cc(N2C[C@H]3C[C@@H]2CN3)cnc1Cl	180 nM	0.014 nM	–
NC(=O)c1cncc(N2C[C@H]3C[C@@H]2CN3)c1	28000 nM	0.83 nM	EC50 [3, 19]: 30 nM; EC50 [3, 20]: 30.2 nM
Fc1ccc(N2C[C@H]3C[C@@H]2CN3)cn1	160 nM	0.028 nM	Log EC50 [3]: -6.7; EC50 ([3]; read-out: EC50): 1.6 nM; EC50 ([1]; read-out: Log EC50 (converted)): 1.62 nM
O=S(=O)(c1cnc(Cl)c(Br)c1)N1C[C@H]2C[C@@H]1CN2	–	17 nM	–
FC(F)(F)c1cncc(N2C[C@H]3C[C@@H]2CN3)c1	–	490 nM	–
Nc1ccc(N2CC3CC2CN3)cn1 (stereo not drawn)	31000 nM	20 nM	–
c1ccc(N2C[C@@H]3C[C@H]2CN3)cc1	–	1000 nM	–
Cc1cc(N2C[C@@H]3C[C@H]2CN3)sn1	–	4.9 nM	–
c1ncc(N2C[C@@H]3C[C@H]2CN3)cn1	–	0.95 nM	–

Structure (SMILES)	EC50 ([1]; read-out: EC50)	Ki ([2]; read-out: Ki)	also measured
Cc1nsc(N2C[C@H]3C[C@@H]2CN3)n1	–	350 nM	–
Oc1cc(N2C[C@@H]3C[C@H]2CN3)cnc1Cl	35000 nM	1.6 nM	Log EC50 [3]: -7.3; EC50 ([3]; read-out: EC50): 51 nM
c1cncc(N2CC3CNC(C3)C2)c1 (stereo not drawn)	72 nM	0.047 nM	–
Clc1ccc(N2C[C@@H]3C[C@H]2CN3)cn1	450 nM	0.1 nM	Activity [4]: Active; Activity [5]: Active; Activity [6]: Active; Log EC50 [3]: -8.28; EC50 ([3]; read-out: EC50): 5.3 nM; Activity [7]: Active; Activity [8]: Active; Activity [9]: Active; Activity [10]: Active
C[N+]1(C)CC2CC1CN2c1ccc(Cl)nc1 (stereo not drawn)	1500 nM	0.2 nM	–
O=[N+]([O-])c1ccc(N2C[C@@H]3C[C@H]2CN3)cn1	11000 nM	110 nM	–
NCc1cncc(N2C[C@@H]3C[C@H]2CN3)c1	20000 nM	140 nM	–
O=C1C2CC(CN2)N1c1ccc(Cl)nc1 (stereo not drawn)	–	> 10000 nM	Ki ([2]; read-out: Log Ki (converted)): > 100000 nM
CN1CCC[C@H]1c1cccnc1 [NICOTINE]	–	–	EC50 [3, 19]: 200 nM; EC50 [3, 20]: 200 nM
Clc1cc(N2CC3CC2CN3)ncn1 (stereo not drawn)	–	52 nM	–
c1cnc2c(N3C[C@H]4C[C@@H]3CN4)csc2c1	–	280 nM	–
Clc1cc(N2C[C@H]3C[C@@H]2CN3)cnc1Cl	550 nM	0.018 nM	EC50 [3, 19]: 16 nM; EC50 [3, 20]: 16.2 nM
Cc1ccc(N2C[C@@H]3C[C@H]2CN3)cn1	1700 nM	1.6 nM	EC50 [3, 19]: 350 nM; EC50 [3, 20]: 347 nM
c1ccc(N2C[C@@H]3C[C@H]2CN3)nc1	–	980 nM	–
c1cncc(N2CC3CCC2CN3)c1 (stereo not drawn)	280 nM	0.02 nM	–
Oc1cc(N2C[C@H]3C[C@@H]2CN3)cnc1Cl	3200 nM	0.17 nM	Log EC50 [3]: -8.42; EC50 ([3]; read-out: EC50): 3.8 nM; concentration at 1 h [11]: 131 ng/mL; Activity [12]: inactive; Activity [13]: Active; concentration at 0.25 h [14]: 458 ng/mL; concentration at 0.5 h [15]: 289 ng/mL; concentration at 0.25 h [16]: 29 ng/g; concentration at 1 h [17]: 10 ng/g; concentration at 0.5 h [18]: 22 ng/g
c1cncc(N2CC3CNCC2C3)c1 (stereo not drawn)	1600 nM	0.065 nM	–
N#Cc1cncc(N2C[C@@H]3C[C@H]2CN3)c1	24000 nM	1.7 nM	Log EC50 [3]: -7.64; EC50 ([3]; read-out: EC50): 23 nM; Ki ([2]; read-out: Log Ki (converted)): 1.62 nM
Oc1cncc(N2C[C@@H]3C[C@H]2CN3)c1	> 100000 nM	4 nM	Log EC50 [3]: -7.6; EC50 ([3]; read-out: EC50): 28 nM

Structure (SMILES)	EC50 ([1]; read-out: EC50)	Ki ([2]; read-out: Ki)	also measured
c1cncc(CN2C[C@H]3C[C@@H]2CN3)c1	–	56 nM	–
N#Cc1cncc(N2C[C@H]3C[C@@H]2CN3)c1	980 nM	0.027 nM	Log EC50 [3]: -9.1; EC50 ([3]; read-out: EC50): 0.8 nM
Fc1cccc(N2C[C@@H]3C[C@H]2CN3)c1	–	250 nM	–
Clc1ccc(N2C[C@@H]3C[C@H]2CN3)cc1	–	22 nM	–
Clc1ccc(N2C[C@H]3C[C@@H]2CN3)cn1	140 nM	0.018 nM	Log EC50 [3]: -8.6; EC50 ([3]; read-out: EC50): 2.5 nM
c1cnc2cc(N3C[C@H]4C[C@@H]3CN4)sc2c1	–	0.83 nM	–
NC(=O)c1cncc(N2C[C@@H]3C[C@H]2CN3)c1	25000 nM	24 nM	–
c1ccc2nc(N3C[C@@H]4C[C@H]3CN4)ccc2c1	–	4000 nM	–
Cc1cc(N2C[C@@H]3C[C@H]2CN3)nnc1Cl	–	3.8 nM	–
CCN1C[C@@H]2C[C@H]1CN2c1ccc(Cl)nc1	–	34 nM	–
c1ccc2ncc(N3C[C@@H]4C[C@H]3CN4)cc2c1	–	17 nM	–
COc1ccc(N2C[C@H]3C[C@@H]2CN3)cn1	850 nM	0.25 nM	–
Clc1ccc(C2CC3CCC2N3)cn1 (stereo not drawn) [EPIBATIDINE]	–	–	EC50 [3, 19]: 0.83 nM; EC50 [3, 20]: 0.832 nM
Oc1cncc(N2C[C@H]3C[C@@H]2CN3)c1	2600 nM	0.035 nM	Log EC50 [3]: -8.24; EC50 ([3]; read-out: EC50): 5.7 nM
c1cncc(N2C[C@H]3C[C@@H]2CN3)c1	370 nM	0.018 nM	–
O=[N+]([O-])c1cccc(N2C[C@@H]3C[C@H]2CN3)c1	–	600 nM	–
Clc1ccc(N2CC3CC2CCN3)cn1 (stereo not drawn)	7440 nM	2.8 nM	–
c1cnnc(N2C[C@@H]3C[C@H]2CN3)c1	–	120 nM	–
